# Laboratory results published in ChEMBL document CHEMBL4665887, “Identification, Structure-Activity Relationships of Marine-Derived Indolocarbazoles, and a Dual PKCθ/δ Inhibitor with Potent Antipancreatic Cancer Efficacy” (J Med Chem, 2020).
# What was measured:
# [1] = Toxicity in BALB/c mouse model of patient-derived xenograft implanted with patient-derived pancreatic cancer cells assessed as effect on normal anatomical structures of heart at 6 mg/kg, iv dosed once every 2 days for 18 days relative to control; assay type: organism-based; conditions: in vivo, 432 h, time 18 day
# [2] = molecular target: Protein kinase C theta type (Homo sapiens, UniProt Q04759); experiment: Inhibition of PKCtheta (unknown origin) by HTRF assay
# [3] = test system: BXPC-3; experiment: Antitumor activity against human BXPC-3 cells xenografted in nude BALB/c mouse assessed as inhibition of tumor growth at 6 mg/kg, iv QD for 18 days relative to control; assay type: functional; conditions: BXPC-3, iv, 432 h, time 18 day, read-out: TGI
# [4] = Toxicity in nude BALB/c mouse xenografted with human BXPC-3 cells assessed as effect on body weight level at 6 mg/kg, iv QD for 18 days relative to control; assay type: organism-based; conditions: in vivo, 432 h, time 18 day
# [5] = test system: BXPC-3; experiment: Cytotoxicity in human BXPC-3 cells assessed as reduction in cell viability incubated for 24 hrs by CCK8 assay; assay type: functional, cell-based; conditions: BXPC-3, 24 h
# [6] = test system: ASPC1; experiment: Cytotoxicity in human ASPC1 cells assessed as reduction in cell viability incubated for 24 hrs by CCK8 assay; assay type: functional, cell-based; conditions: ASPC1, 24 h
# [7] = test system: A549; experiment: Cytotoxicity in human A549 cells assessed as reduction in cell viability incubated for 24 hrs by CCK8 assay; assay type: functional, cell-based; conditions: A549, 24 h
# [8] = test system: NCI-H1299; experiment: Cytotoxicity in human NCI-H1299 cells assessed as reduction in cell viability incubated for 24 hrs by CCK8 assay; assay type: functional, cell-based; conditions: NCI-H1299, 24 h
# [9] = test system: NCI-H1975; experiment: Cytotoxicity in human NCI-H1975 cells assessed as reduction in cell viability incubated for 24 hrs by CCK8 assay; assay type: functional, cell-based; conditions: NCI-H1975, 24 h
# [10] = test system: PC-9; experiment: Cytotoxicity in human PC-9 cells assessed as reduction in cell viability incubated for 24 hrs by CCK8 assay; assay type: functional, cell-based; conditions: PC-9, 24 h
# [11] = test system: RKO; experiment: Cytotoxicity in human RKO cells assessed as reduction in cell viability incubated for 24 hrs by CCK8 assay; assay type: functional, cell-based
# [12] = test system: MGC-803; experiment: Cytotoxicity in human MGC-803 cells assessed as reduction in cell viability incubated for 24 hrs by CCK8 assay; assay type: functional, cell-based; conditions: MGC-803, 24 h
# [13] = test system: BXPC-3; experiment: Induction of apoptosis in human BXPC-3 cells assessed as viable cells level at 0.25 uM incubated for 24 hrs by PI and annexin V-FITC staining based flow cytometry (reference value: 93.43%); assay type: functional
# [14] = test system: BXPC-3; experiment: Induction of apoptosis in human BXPC-3 cells assessed as early apoptotic cells level at 0.25 uM incubated for 24 hrs by PI and annexin V-FITC staining based flow cytometry (reference value: 5.69%); assay type: functional
# [15] = test system: BXPC-3; experiment: Induction of apoptosis in human BXPC-3 cells assessed as late apoptotic cells level at 0.25 uM incubated for 24 hrs by PI and annexin V-FITC staining based flow cytometry (reference value: 0.83%); assay type: functional
# [16] = test system: BXPC-3; experiment: Induction of apoptosis in human BXPC-3 cells assessed as necrotic cells level at 0.25 uM incubated for 24 hrs by PI and annexin V-FITC staining based flow cytometry (reference value: 0.05%); assay type: functional
# [17] = test system: BXPC-3; experiment: Induction of apoptosis in human BXPC-3 cells assessed as viable cells level at 0.5 uM incubated for 24 hrs by PI and annexin V-FITC staining based flow cytometry (reference value: 93.43%); assay type: functional
# [18] = test system: BXPC-3; experiment: Induction of apoptosis in human BXPC-3 cells assessed as early apoptotic cells level at 0.5 uM incubated for 24 hrs by PI and annexin V-FITC staining based flow cytometry (reference value: 5.69%); assay type: functional
# [19] = test system: BXPC-3; experiment: Induction of apoptosis in human BXPC-3 cells assessed as late apoptotic cells level at 0.5 uM incubated for 24 hrs by PI and annexin V-FITC staining based flow cytometry (reference value: 0.83%); assay type: functional
# [20] = test system: BXPC-3; experiment: Induction of apoptosis in human BXPC-3 cells assessed as necrotic cells level at 0.5 uM incubated for 24 hrs by PI and annexin V-FITC staining based flow cytometry (reference value: 0.05%); assay type: functional
# [21] = molecular target: Protein kinase C delta type (Homo sapiens, UniProt Q05655); experiment: Inhibition of PKCdelta (unknown origin) by HTRF assay
# [22] = Effect in PKCtheta protein expression in human BXPC-3 cells at 0.25 to 1 uM incubated for 4 hrs by Western blot analysis; assay type: ADME, cell-based; conditions: bxpc-3, 4 h, dose 0.25-1 µM
# [23] = Antitumor activity against patient-derived pancreatic cancer cells xenografted in BALB/c mouse model of patient-derived xenograft assessed as inhibition of tumor growth at 6 mg/kg, iv dosed once every 2 days for 18 days relative to control; assay type: functional; conditions: Homo sapiens, Pancreatic cancer cell, 432 h, time 18 day, read-out: TGI
# [24] = Toxicity in BALB/c mouse model of patient-derived xenograft implanted with patient-derived pancreatic cancer cells assessed as effect on body weight at 6 mg/kg, iv dosed once every 2 days for 18 days relative to control; assay type: organism-based; conditions: in vivo, 432 h, time 18 day
# [25] = Toxicity in BALB/c mouse model of patient-derived xenograft implanted with patient-derived pancreatic cancer cells assessed as effect on normal anatomical structures of liver at 6 mg/kg, iv dosed once every 2 days for 18 days relative to control; assay type: organism-based; conditions: in vivo, 432 h, time 18 day
# [26] = Toxicity in BALB/c mouse model of patient-derived xenograft implanted with patient-derived pancreatic cancer cells assessed as effect on normal anatomical structures of lung at 6 mg/kg, iv dosed once every 2 days for 18 days relative to control; assay type: organism-based; conditions: in vivo, 432 h, time 18 day
# [27] = Toxicity in BALB/c mouse model of patient-derived xenograft implanted with patient-derived pancreatic cancer cells assessed as effect on normal anatomical structures of spleen at 6 mg/kg, iv dosed once every 2 days for 18 days relative to control; assay type: organism-based; conditions: in vivo, 432 h, time 18 day
# [28] = Toxicity in BALB/c mouse model of patient-derived xenograft implanted with patient-derived pancreatic cancer cells assessed as effect on normal anatomical structures of kidney at 6 mg/kg, iv dosed once every 2 days for 18 days relative to control; assay type: organism-based; conditions: in vivo, 432 h, time 18 day
# [29] = Toxicity in BALB/c mouse model of patient-derived xenograft implanted with patient-derived pancreatic cancer cells assessed as effect on body weight at 30 mg/kg, ip QD for 18 days relative to control; assay type: organism-based; conditions: in vivo, 432 h, time 18 day
# [30] = test system: BXPC-3; experiment: Antitumor activity against human BXPC-3 cells xenografted in nude BALB/c mouse assessed as inhibition of tumor growth at 30 mg/kg, ip QD for 18 days relative to control; assay type: functional; conditions: BXPC-3, ip, 432 h, time 18 day, read-out: TGI
# [31] = Toxicity in nude BALB/c mouse xenografted with human BXPC-3 cells assessed as effect on body weight level at 30 mg/kg, ip QD for 18 days relative to control; assay type: organism-based; conditions: in vivo, 432 h, time 18 day
# [32] = Antitumor activity against patient-derived pancreatic cancer cells xenografted in BALB/c mouse model of patient-derived xenograft assessed as inhibition of tumor growth at 30 mg/kg, ip QD for 18 days relative to control; assay type: functional; conditions: Homo sapiens, Pancreatic cancer cell, 432 h, time 18 day, read-out: TGI
# [33] = Toxicity in BALB/c mouse model of patient-derived xenograft implanted with patient-derived pancreatic cancer cells assessed as effect on normal anatomical structures of heart at 30 mg/kg, ip QD for 18 days relative to control; assay type: organism-based; conditions: in vivo, 432 h, time 18 day
# [34] = Toxicity in BALB/c mouse model of patient-derived xenograft implanted with patient-derived pancreatic cancer cells assessed as effect on normal anatomical structures of liver at 30 mg/kg, ip QD for 18 days relative to control; assay type: organism-based; conditions: in vivo, 432 h, time 18 day
# [35] = Toxicity in BALB/c mouse model of patient-derived xenograft implanted with patient-derived pancreatic cancer cells assessed as effect on normal anatomical structures of lung at 30 mg/kg, ip QD for 18 days relative to control; assay type: organism-based; conditions: in vivo, 432 h, time 18 day
# [36] = Toxicity in BALB/c mouse model of patient-derived xenograft implanted with patient-derived pancreatic cancer cells assessed as effect on normal anatomical structures of spleen at 30 mg/kg, ip QD for 18 days relative to control; assay type: organism-based; conditions: in vivo, 432 h, time 18 day
# [37] = Toxicity in BALB/c mouse model of patient-derived xenograft implanted with patient-derived pancreatic cancer cells assessed as effect on normal anatomical structures of kidney at 30 mg/kg, ip QD for 18 days relative to control; assay type: organism-based; conditions: in vivo, 432 h, time 18 day
# Protein kinase C delta type, sequence (Q05655 whole entry): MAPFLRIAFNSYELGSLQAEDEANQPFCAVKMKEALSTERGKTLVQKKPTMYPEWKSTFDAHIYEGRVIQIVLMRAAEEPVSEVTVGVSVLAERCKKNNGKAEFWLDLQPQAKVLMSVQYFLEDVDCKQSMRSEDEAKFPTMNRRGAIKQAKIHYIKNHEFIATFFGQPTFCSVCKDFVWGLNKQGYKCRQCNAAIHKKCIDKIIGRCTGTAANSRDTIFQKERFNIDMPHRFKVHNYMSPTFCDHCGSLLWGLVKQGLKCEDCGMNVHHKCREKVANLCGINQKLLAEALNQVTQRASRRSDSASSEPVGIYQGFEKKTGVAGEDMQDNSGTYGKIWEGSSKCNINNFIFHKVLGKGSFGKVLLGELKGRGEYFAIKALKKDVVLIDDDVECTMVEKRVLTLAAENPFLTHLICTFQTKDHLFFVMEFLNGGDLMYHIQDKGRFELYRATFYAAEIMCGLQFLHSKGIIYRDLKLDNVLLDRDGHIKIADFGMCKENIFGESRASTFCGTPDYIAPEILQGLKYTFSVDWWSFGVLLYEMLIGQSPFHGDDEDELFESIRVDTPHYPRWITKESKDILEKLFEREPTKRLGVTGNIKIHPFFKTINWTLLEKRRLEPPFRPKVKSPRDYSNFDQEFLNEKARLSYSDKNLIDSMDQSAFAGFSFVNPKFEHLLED
# Protein kinase C theta type, sequence (Q04759 whole entry): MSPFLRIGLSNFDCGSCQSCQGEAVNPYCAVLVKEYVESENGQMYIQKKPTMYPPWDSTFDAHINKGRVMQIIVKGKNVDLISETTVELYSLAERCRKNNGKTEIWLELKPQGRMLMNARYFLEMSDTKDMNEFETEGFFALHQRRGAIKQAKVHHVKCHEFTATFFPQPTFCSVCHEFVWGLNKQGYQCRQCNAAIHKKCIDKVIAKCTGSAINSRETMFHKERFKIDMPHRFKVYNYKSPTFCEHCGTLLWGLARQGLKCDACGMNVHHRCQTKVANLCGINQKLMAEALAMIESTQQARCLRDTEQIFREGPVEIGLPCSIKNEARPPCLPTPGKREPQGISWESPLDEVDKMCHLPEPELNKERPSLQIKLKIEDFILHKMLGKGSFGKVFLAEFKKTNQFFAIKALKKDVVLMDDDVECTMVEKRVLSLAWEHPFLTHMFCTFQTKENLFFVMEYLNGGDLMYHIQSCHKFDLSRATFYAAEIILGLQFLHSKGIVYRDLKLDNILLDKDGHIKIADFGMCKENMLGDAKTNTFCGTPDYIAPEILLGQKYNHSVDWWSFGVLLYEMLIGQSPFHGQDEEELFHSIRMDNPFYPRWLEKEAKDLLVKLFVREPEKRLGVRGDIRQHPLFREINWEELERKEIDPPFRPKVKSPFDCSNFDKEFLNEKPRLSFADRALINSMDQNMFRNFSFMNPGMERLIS
smiles,measurement,setting,value
CN[C@@H]1C[C@H]2O[C@@](C)([C@@H]1OC)n1c3ccccc3c3c4c(c5c6ccccc6n2c5c31)C(=O)NC4=O (stereo in doubt; 15),Activity,[1],Non-Toxic
same,IC50,[2],6 nM
same,inhibition in vivo at 6 mg/kg,[3],49.6%
same,Activity,[4],Non-Toxic
same,IC50,[5],430 nM
same,IC50,[6],1200 nM
same,IC50,[7],780 nM
same,IC50,[8],2030 nM
same,IC50,[9],2010 nM
same,IC50,[10],1880 nM
same,IC50,[11],1470 nM
same,IC50,[12],1520 nM
same,Activity,[13],63.54%
same,Activity,[14],33.77%
same,Activity,[15],2.66%
same,Activity,[16],0.04%
same,Activity,[17],46.45%
same,Activity,[18],46.07%
same,Activity,[19],6.89%
same,Activity,[20],0.59%
same,IC50,[21],21 nM
same,Activity,[22],Non-Toxic
same,inhibition in vivo at 6 mg/kg,[23],56.9%
same,Activity,[24],Non-Toxic
same,Activity,[25],Non-Toxic
same,Activity,[26],Non-Toxic
same,Activity,[27],Non-Toxic
same,Activity,[28],Non-Toxic
CC(=O)c1cc2c(o1)C(=O)c1ccccc1C2=O [NAPABUCASIN],Activity,[29],Non-Toxic
same,inhibition in vivo at 30 mg/kg,[30],34.2%
same,Activity,[31],Non-Toxic
same,inhibition in vivo at 30 mg/kg,[32],41.8%
same,Activity,[33],Non-Toxic
same,Activity,[34],Non-Toxic
same,Activity,[35],Non-Toxic
same,Activity,[36],Non-Toxic
same,Activity,[37],Non-Toxic
